Calls of active or inactive are those of the source. The rule behind the calls is not given here. Positions of bridges follow the written chain, without caps; N, C: chain ends. Non-standard residues stand in square brackets, D forms with d. Residues, ends and D or L forms follow the SMILES beside them. ξ: configuration not given here. Cit = NC(=O)NCCC[C@H](N)C(=O)O; Dap = NC[C@H](N)C(=O)O; ξDab = NCCC(N)C(=O)O; ξDap = NCC(N)C(=O)O

One test deals with Neuronal acetylcholine receptor; alpha9/alpha10 (Homo sapiens) (UniProt Q9UGM1+Q9GZZ6). Description: Antagonist activity at human alpha9alpha10 nAChR expressed in Xenopus laevis oocytes assessed as inhibition of ACh-induced current amplitude at -80 mV holding potential at 100 nM by two-electrode voltage clamp method. Particulars: Oocyte. The test is classed as cell-based.
Turning to `CC[C@H](C)[C@@H]1NC(=O)[C@H](CC(=O)O)NC(=O)[C@@H]2CCCN2C(=O)[C@H](CC(N)=O)NC(=O)[C@H](CC(N)=O)NC(=O)[C@H](CC(=O)O)NC(=O)[C@H](CO)NC(=O)[C@@H]2CSSC[C@H](NC(=O)CN)C(=O)N[C@@H](CSSC[C@@H](C(N)=O)NC1=O)C(=O)N[C@@H](CO)C(=O)N[C@@H](Cc1cnc[nH]1)C(=O)N1CCC[C@H]1C(=O)N[C@@H](C)C(=O)N2` (H-GCCSHPACSDNNPDIC-NH2; disulfide 2-8, 3-16), the inhibition was less than 5%.

As to `CC[C@H](C)[C@@H]1NC(=O)[C@H](CC(=O)O)NC(=O)[C@@H]2CCCN2C(=O)[C@H](CC(N)=O)NC(=O)[C@H](CC(N)=O)NC(=O)[C@H](CCCCN)NC(=O)[C@H](CO)NC(=O)[C@@H]2CSSC[C@H](NC(=O)CN)C(=O)N[C@@H](CSSC[C@@H](C(N)=O)NC1=O)C(=O)N[C@@H](CO)C(=O)N[C@@H](Cc1cnc[nH]1)C(=O)N1CCC[C@H]1C(=O)N[C@@H](C)C(=O)N2` (H-GCCSHPACSKNNPDIC-NH2; disulfide 2-8, 3-16), the inhibition is less than 5%.

On to `CC[C@H](C)[C@@H]1NC(=O)[C@H](CC(=O)O)NC(=O)[C@@H]2CCCN2C(=O)[C@H](CC(N)=O)NC(=O)[C@H](CC(N)=O)NC(=O)[C@H](C(C)C)NC(=O)[C@H](CO)NC(=O)[C@@H]2CSSC[C@H](NC(=O)CN)C(=O)N[C@@H](CSSC[C@@H](C(=O)N[C@@H](CC(C)C)C(N)=O)NC1=O)C(=O)N[C@@H](CO)C(=O)N[C@@H](Cc1cnc[nH]1)C(=O)N1CCC[C@H]1C(=O)N[C@@H](C)C(=O)N2` (H-GCCSHPACSVNNPDICL-NH2; disulfide 2-8, 3-16), for which the inhibition was found to be 15%.

Consider `CC[C@H](C)[C@@H]1NC(=O)[C@H](CC(=O)O)NC(=O)[C@@H]2CCCN2C(=O)[C@H](CC(N)=O)NC(=O)[C@H](CC(N)=O)NC(=O)[C@H](C(C)C)NC(=O)[C@H](CO)NC(=O)[C@@H]2CSSC[C@H](NC(=O)CN)C(=O)N[C@@H](CSSC[C@@H](C(=O)N[C@@H](Cc3ccc(O)cc3)C(N)=O)NC1=O)C(=O)N[C@@H](CO)C(=O)N[C@@H](Cc1cnc[nH]1)C(=O)N1CCC[C@H]1C(=O)N[C@@H](C)C(=O)N2` (H-GCCSHPACSVNNPDICY-NH2; disulfide 2-8, 3-16), for which the inhibition is 15%.

`CC[C@H](C)[C@@H]1NC(=O)[C@H](CC(=O)O)NC(=O)[C@@H]2CCCN2C(=O)[C@H](CC(N)=O)NC(=O)[C@H](CC(N)=O)NC(=O)[C@H](CCCNC(N)=O)NC(=O)[C@H](CO)NC(=O)[C@@H]2CSSC[C@H](NC(=O)CN)C(=O)N[C@@H](CSSC[C@@H](C(N)=O)NC1=O)C(=O)N[C@@H](CO)C(=O)N[C@@H](Cc1cnc[nH]1)C(=O)N1CCC[C@H]1C(=O)N[C@@H](C)C(=O)N2` (H-GCCSHPACS[Cit]NNPDIC-NH2; disulfide 2-8, 3-16): the inhibition is less than 5%.

On to `CC[C@H](C)[C@@H]1NC(=O)[C@H](CC(=O)O)NC(=O)[C@@H]2CCCN2C(=O)[C@H](CC(N)=O)NC(=O)[C@H](CC(N)=O)NC(=O)C(CCN)NC(=O)[C@H](CO)NC(=O)[C@@H]2CSSC[C@H](NC(=O)CN)C(=O)N[C@@H](CSSC[C@@H](C(N)=O)NC1=O)C(=O)N[C@@H](CO)C(=O)N[C@@H](Cc1cnc[nH]1)C(=O)N1CCC[C@H]1C(=O)N[C@@H](C)C(=O)N2` (stereo not given in full) (H-GCCSHPACS[ξDab]NNPDIC-NH2; disulfide 2-8, 3-16), for which the inhibition amounted to 35%.

For the compound `CC[C@H](C)[C@@H]1NC(=O)[C@H](CC(=O)O)NC(=O)[C@@H]2CCCN2C(=O)[C@H](CC(N)=O)NC(=O)[C@H](CC(N)=O)NC(=O)[C@H](C(C)C)NC(=O)[C@H](Cc2ccc(O)cc2)NC(=O)[C@@H]2CSSC[C@H](NC(=O)CN)C(=O)N[C@@H](CSSC[C@@H](C(N)=O)NC1=O)C(=O)N[C@@H](CO)C(=O)N[C@@H](Cc1cnc[nH]1)C(=O)N1CCC[C@H]1C(=O)N[C@@H](C)C(=O)N2` (H-GCCSHPACYVNNPDIC-NH2; disulfide 2-8, 3-16), the inhibition stood at 5%.

Regarding `CC[C@H](C)[C@@H]1NC(=O)[C@H](CC(=O)O)NC(=O)[C@@H]2CCCN2C(=O)[C@H](CC(N)=O)NC(=O)[C@H](CC(N)=O)NC(=O)[C@H](C(C)C)NC(=O)C(CCN)NC(=O)[C@@H]2CSSC[C@H](NC(=O)CN)C(=O)N[C@@H](CSSC[C@@H](C(N)=O)NC1=O)C(=O)N[C@@H](CO)C(=O)N[C@@H](Cc1cnc[nH]1)C(=O)N1CCC[C@H]1C(=O)N[C@@H](C)C(=O)N2` (stereo not given in full) (H-GCCSHPAC[ξDab]VNNPDIC-NH2; disulfide 2-8, 3-16), the inhibition worked out at 15%.

On to `CC[C@H](C)[C@@H]1NC(=O)[C@H](CC(=O)O)NC(=O)[C@@H]2CCCN2C(=O)[C@H](CC(N)=O)NC(=O)[C@H](CC(N)=O)NC(=O)[C@H](C(C)C)NC(=O)[C@H](CO)NC(=O)[C@@H]2CSSC[C@H](NC(=O)CN)C(=O)N[C@@H](CSSC[C@@H](C(N)=O)NC1=O)C(=O)N[C@@H](CO)C(=O)N[C@@H](CCCNC(=N)N)C(=O)N1CCC[C@H]1C(=O)N[C@@H](C)C(=O)N2` (H-GCCSRPACSVNNPDIC-NH2; disulfide 2-8, 3-16), for which the inhibition was found to be 10%.

On to `CC[C@H](C)[C@@H]1NC(=O)[C@H](CC(=O)O)NC(=O)[C@@H]2CCCN2C(=O)[C@H](CC(N)=O)NC(=O)[C@H](CC(N)=O)NC(=O)[C@H](C(C)C)NC(=O)[C@H](CO)NC(=O)[C@@H]2CSSC[C@H](NC(=O)CN)C(=O)N[C@@H](CSSC[C@@H](C(N)=O)NC1=O)C(=O)N[C@@H]([C@@H](C)O)C(=O)N[C@@H](Cc1cnc[nH]1)C(=O)N1CCC[C@H]1C(=O)N[C@@H](C)C(=O)N2` (H-GCCTHPACSVNNPDIC-NH2; disulfide 2-8, 3-16), for which the inhibition is 10%.

Staying with this test, now noted: Oocyte, filed as antagonist.
On to `CC[C@H](C)[C@@H]1NC(=O)[C@H](CC(=O)O)NC(=O)[C@@H]2CCCN2C(=O)[C@H](CC(N)=O)NC(=O)[C@H](CC(N)=O)NC(=O)[C@H](C(C)C)NC(=O)[C@H](CO)NC(=O)[C@@H]2CSSC[C@H](NC(=O)CN)C(=O)N[C@@H](CSSC[C@@H](C(N)=O)NC1=O)C(=O)N[C@@H](CCCNC(=N)N)C(=O)N[C@@H](Cc1cnc[nH]1)C(=O)N1CCC[C@H]1C(=O)N[C@@H](C)C(=O)N2` (H-GCCRHPACSVNNPDIC-NH2; disulfide 2-8, 3-16), for which the inhibition is more than 85%.

As for `CC[C@H](C)[C@@H]1NC(=O)[C@H](CC(=O)O)NC(=O)[C@@H]2CCCN2C(=O)[C@H](CC(N)=O)NC(=O)[C@H](CC(N)=O)NC(=O)[C@H](CCCNC(=N)N)NC(=O)[C@H](CO)NC(=O)[C@@H]2CSSC[C@H](NC(=O)CN)C(=O)N[C@@H](CSSC[C@@H](C(N)=O)NC1=O)C(=O)N[C@@H](CO)C(=O)N[C@@H](Cc1cnc[nH]1)C(=O)N1CCC[C@H]1C(=O)N[C@@H](C)C(=O)N2` (H-GCCSHPACSRNNPDIC-NH2; disulfide 2-8, 3-16), the inhibition worked out at 60%.

In the case of `CC[C@H](C)[C@@H]1NC(=O)[C@H](CC(=O)O)NC(=O)[C@@H]2CCCN2C(=O)[C@H](CC(N)=O)NC(=O)[C@H](CC(N)=O)NC(=O)[C@H](C(C)C)NC(=O)[C@H](CO)NC(=O)[C@@H]2CSSC[C@H](NC(=O)CN)C(=O)N[C@@H](CSSC[C@@H](C(=O)N[C@@H](CCCNC(=N)N)C(N)=O)NC1=O)C(=O)N[C@@H](CO)C(=O)N[C@@H](Cc1cnc[nH]1)C(=O)N1CCC[C@H]1C(=O)N[C@@H](C)C(=O)N2` (H-GCCSHPACSVNNPDICR-NH2; disulfide 2-8, 3-16), the inhibition came out at 60%.

Take `CC[C@H](C)[C@@H]1NC(=O)[C@H](CC(=O)O)NC(=O)[C@@H]2CCCN2C(=O)[C@H](CC(N)=O)NC(=O)[C@H](CC(N)=O)NC(=O)[C@H](CN)NC(=O)[C@H](CO)NC(=O)[C@@H]2CSSC[C@H](NC(=O)CN)C(=O)N[C@@H](CSSC[C@@H](C(N)=O)NC1=O)C(=O)N[C@@H](CO)C(=O)N[C@@H](Cc1c[nH]cn1)C(=O)N1CCC[C@H]1C(=O)N[C@@H](C)C(=O)N2` (H-GCCSHPACS[Dap]NNPDIC-NH2; disulfide 2-8, 3-16): the inhibition result is “Active”.

As for `CC[C@H](C)[C@@H]1NC(=O)[C@H](CC(=O)O)NC(=O)[C@@H]2CCCN2C(=O)[C@H](CC(N)=O)NC(=O)[C@H](CC(N)=O)NC(=O)C(CCN)NC(=O)[C@H](CO)NC(=O)[C@@H]2CSSC[C@H](NC(=O)CN)C(=O)N[C@@H](CSSC[C@@H](C(N)=O)NC1=O)C(=O)N[C@@H](CO)C(=O)N[C@@H](Cc1cnc[nH]1)C(=O)N1CCC[C@H]1C(=O)N[C@@H](C)C(=O)N2` (stereo not given in full) (H-GCCSHPACS[ξDab]NNPDIC-NH2; disulfide 2-8, 3-16), the inhibition entry is “Active”.

As for `CC[C@H](C)[C@@H]1NC(=O)[C@H](CC(=O)O)NC(=O)[C@@H]2CCCN2C(=O)[C@H](CC(N)=O)NC(=O)[C@H](CC(N)=O)NC(=O)C(CN)NC(=O)[C@H](CO)NC(=O)[C@@H]2CSSC[C@H](NC(=O)CN)C(=O)N[C@@H](CSSC[C@@H](C(N)=O)NC1=O)C(=O)N[C@@H](CO)C(=O)N[C@@H](Cc1cnc[nH]1)C(=O)N1CCC[C@H]1C(=O)N[C@@H](C)C(=O)N2` (stereo not given in full) (H-GCCSHPACS[ξDap]NNPDIC-NH2; disulfide 2-8, 3-16), the inhibition is more than 90%.

For `CC[C@H](C)[C@@H]1NC(=O)[C@H](CC(=O)O)NC(=O)[C@@H]2CCCN2C(=O)[C@H](CC(N)=O)NC(=O)[C@H](CC(N)=O)NC(=O)[C@H](C(C)C)NC(=O)[C@H](CN)NC(=O)[C@@H]2CSSC[C@H](NC(=O)CN)C(=O)N[C@@H](CSSC[C@@H](C(N)=O)NC1=O)C(=O)N[C@@H](CO)C(=O)N[C@@H](Cc1c[nH]cn1)C(=O)N1CCC[C@H]1C(=O)N[C@@H](C)C(=O)N2` (H-GCCSHPAC[Dap]VNNPDIC-NH2; disulfide 2-8, 3-16), the inhibition result is “Active”.

Turning to `CC[C@H](C)[C@@H]1NC(=O)[C@H](CC(=O)O)NC(=O)[C@@H]2CCCN2C(=O)[C@H](CC(N)=O)NC(=O)[C@H](CC(N)=O)NC(=O)[C@H](C(C)C)NC(=O)C(CN)NC(=O)[C@@H]2CSSC[C@H](NC(=O)CN)C(=O)N[C@@H](CSSC[C@@H](C(N)=O)NC1=O)C(=O)N[C@@H](CO)C(=O)N[C@@H](Cc1cnc[nH]1)C(=O)N1CCC[C@H]1C(=O)N[C@@H](C)C(=O)N2` (stereo not given in full) (H-GCCSHPAC[ξDap]VNNPDIC-NH2; disulfide 2-8, 3-16), the inhibition was determined as 80%.

On to `CC[C@H](C)[C@@H]1NC(=O)[C@H](CC(=O)O)NC(=O)[C@@H]2CCCN2C(=O)[C@H](CC(N)=O)NC(=O)[C@H](CC(N)=O)NC(=O)[C@H](C(C)C)NC(=O)[C@H](CO)NC(=O)[C@@H]2CSSC[C@H](NC(=O)CN)C(=O)N[C@@H](CSSC[C@@H](C(N)=O)NC1=O)C(=O)NC(CCN)C(=O)N[C@@H](Cc1cnc[nH]1)C(=O)N1CCC[C@H]1C(=O)N[C@@H](C)C(=O)N2` (stereo not given in full) (H-GCC[ξDab]HPACSVNNPDIC-NH2; disulfide 2-8, 3-16), for which the inhibition is more than 85%.

`CC[C@H](C)[C@@H]1NC(=O)[C@H](CC(=O)O)NC(=O)[C@@H]2CCCN2C(=O)[C@H](CC(N)=O)NC(=O)[C@H](CC(N)=O)NC(=O)C(CN)NC(=O)[C@H](CO)NC(=O)[C@@H]2CSSC[C@H](NC(=O)CN)C(=O)N[C@@H](CSSC[C@@H](C(N)=O)NC1=O)C(=O)NC(CN)C(=O)N[C@@H](Cc1cnc[nH]1)C(=O)N1CCC[C@H]1C(=O)N[C@@H](C)C(=O)N2` (stereo not given in full) (H-GCC[ξDap]HPACS[ξDap]NNPDIC-NH2; disulfide 2-8, 3-16): the inhibition is more than 95%.
